Measurements from the NIST ThermoML archive (doi:10.1016/j.tca.2009.05.014).
Numbers after ± are expanded uncertainties.

Details: Crystal, Rate of evaporation

CC(C)(C)C(=O)/C=C(\[O-])C(C)(C)C.CC(C)(C)C(=O)/C=C(\[O-])C(C)(C)C.[Cu+2] [bis(2,2,6,6-tetramethyl-3,5-heptanedionato)copper(II)]
Details | vapor or sublimation pressure [kPa]
375 K | 4e-05 ± 4e-06
385 K | 7.2e-05 ± 7e-06
395 K | 0.000151 ± 1.5e-05
404 K | 0.000343 ± 3.4e-05
415 K | 0.00072 ± 7.2e-05
425 K | 0.001456 ± 0.00015
435 K | 0.002373 ± 0.00024
